Test results taken from ChEMBL document CHEMBL3822442, “Synthesis and Pharmacological Characterization of Novel Glucagon-like Peptide-2 (GLP-2) Analogues with Low Systemic Clearance” (J Med Chem, 2016).

Assays:
[1] = molecular target: T1, Glucagon-like peptide 2 receptor (Homo sapiens, UniProt O95838); experiment: Agonist activity at human GLP2R expressed in HEK293 cells after 5 hrs by luciferase reporter gene assay; format: cell-based
T1 sequence (O95838 whole entry): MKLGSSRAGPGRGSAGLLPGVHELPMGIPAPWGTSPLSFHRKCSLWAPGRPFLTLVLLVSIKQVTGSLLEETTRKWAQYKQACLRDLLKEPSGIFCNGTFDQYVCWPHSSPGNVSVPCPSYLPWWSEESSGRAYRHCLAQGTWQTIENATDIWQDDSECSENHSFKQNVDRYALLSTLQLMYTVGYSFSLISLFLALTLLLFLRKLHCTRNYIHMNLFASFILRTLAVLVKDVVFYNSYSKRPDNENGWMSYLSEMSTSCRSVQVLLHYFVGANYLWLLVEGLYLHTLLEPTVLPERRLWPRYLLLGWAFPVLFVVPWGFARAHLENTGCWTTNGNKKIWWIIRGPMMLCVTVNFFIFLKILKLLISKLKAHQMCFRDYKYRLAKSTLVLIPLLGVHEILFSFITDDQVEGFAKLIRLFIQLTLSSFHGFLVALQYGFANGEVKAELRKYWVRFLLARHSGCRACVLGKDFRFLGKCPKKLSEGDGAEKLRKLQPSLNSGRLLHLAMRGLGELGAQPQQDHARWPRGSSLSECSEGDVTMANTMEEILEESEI

[2] = molecular target: Glucagon-like peptide 1 receptor (Homo sapiens, UniProt P43220); experiment: Agonist activity at human GLP1R expressed in HEK293 cells after 5 hrs by luciferase reporter gene assay; format: cell-based
HEK293 = experiment: Selectivity ratio of EC50 for human GLP1R expressed in HEK293 cells to EC50 for human GLP2R expressed in HEK293; format: cell-based
[3] = Systemic clearance in Sprague-Dawley rat at 0.2 mg/kg, iv through cassette dosing measured up to 300 mins by LC/MS/MS analysis; format: ADME, organism-based; settings: in vivo

Glucagon-like peptide 1 receptor, sequence (P43220 whole entry): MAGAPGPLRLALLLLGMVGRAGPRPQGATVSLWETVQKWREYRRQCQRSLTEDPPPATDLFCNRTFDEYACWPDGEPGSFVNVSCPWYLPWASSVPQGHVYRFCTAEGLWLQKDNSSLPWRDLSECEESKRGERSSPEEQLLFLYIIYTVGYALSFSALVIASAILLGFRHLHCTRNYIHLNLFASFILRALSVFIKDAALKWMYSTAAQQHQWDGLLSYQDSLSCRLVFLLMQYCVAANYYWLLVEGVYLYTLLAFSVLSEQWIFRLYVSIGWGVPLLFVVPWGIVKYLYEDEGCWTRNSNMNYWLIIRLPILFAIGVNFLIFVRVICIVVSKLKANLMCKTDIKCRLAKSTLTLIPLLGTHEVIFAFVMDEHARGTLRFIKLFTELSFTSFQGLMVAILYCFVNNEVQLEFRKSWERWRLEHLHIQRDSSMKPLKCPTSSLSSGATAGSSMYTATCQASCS

| Compound | EC50 [1] | EC50 [2] | clearance [3] | Ratio EC50 (HEK293) |
| --- | --- | --- | --- | --- |
| CCCCC(NC(=O)[C@H](CCC(=O)O)NC(=O)[C@H](CC(=O)O)NC(=O)[C@H](CO)NC(=O)[C@H](Cc1ccccc1)NC(=O)[C@H](CO)NC(=O)CNC(=O)[C@H](CC(=O)O)NC(=O)CNC(=O)[C@@H](N)Cc1cnc[nH]1)C(=O)N[C@H](Cc1ccccc1)C(=O)N[C@H](C(=O)N[C@H](C(=O)N[C@@H](CC(C)C)C(=O)N[C@@H](CC(=O)O)C(=O)N[C@@H](CC(C)C)C(=O)N[C@@H](CC(C)C)C(=O)N[C@@H](C)C(=O)N[C@@H](C)C(=O)N[C@@H](CCCNC(=N)N)C(=O)N[C@@H](CC(=O)O)C(=O)N[C@@H](Cc1ccccc1)C(=O)N[C@H](C(=O)N[C@@H](CC(N)=O)C(=O)N[C@@H](Cc1c[nH]c2ccccc12)C(=O)N[C@@H](CC(C)C)C(=O)N[C@H](C(=O)N[C@@H](CCC(N)=O)C(=O)N[C@H](C(=O)N[C@@H](CCCCN)C(=O)N[C@H](C(=O)N[C@H](C(=O)N[C@@H](CC(=O)O)C(=O)NCc1ccncc1)[C@@H](C)O)[C@@H](C)CC)[C@@H](C)O)[C@@H](C)CC)[C@@H](C)CC)[C@@H](C)CC)[C@@H](C)O (some centres not stated) | 0.04 nM | > 1000 nM | 0.27 mL/min/kg | > 25000 |
| CCCCC(NC(=O)[C@H](CCC(=O)O)NC(=O)[C@H](CC(=O)O)NC(=O)[C@H](CO)NC(=O)[C@H](Cc1ccccc1)NC(=O)[C@H](CO)NC(=O)CNC(=O)[C@H](CC(=O)O)NC(=O)CNC(=O)[C@@H](N)Cc1cnc[nH]1)C(=O)N[C@H](Cc1cccs1)C(=O)N[C@H](C(=O)N[C@H](C(=O)N[C@@H](CC(C)C)C(=O)N[C@@H](CC(=O)O)C(=O)N[C@@H](CC(C)C)C(=O)N[C@@H](CC(C)C)C(=O)N[C@@H](C)C(=O)N[C@H](C(=O)N[C@@H](CCCNC(=N)N)C(=O)N[C@@H](CC(=O)O)C(=O)N[C@@H](Cc1ccccc1)C(=O)N[C@H](C(=O)N[C@@H](CC(N)=O)C(=O)N[C@@H](Cc1c[nH]c2ccccc12)C(=O)N[C@@H](CC(C)C)C(=O)N[C@H](C(=O)N[C@@H](CCC(N)=O)C(=O)N[C@H](C(=O)N[C@@H](CCCCN)C(=O)N[C@H](C(=O)N[C@H](C(=O)N[C@@H](CC(=O)O)C(N)=O)[C@@H](C)O)[C@@H](C)CC)[C@@H](C)O)[C@@H](C)CC)[C@@H](C)CC)[C@@H](C)O)[C@@H](C)CC)[C@@H](C)O (some centres not stated) | 0.05 nM | > 1000 nM | 0.28 mL/min/kg | > 20000 |
| CCCCC(NC(=O)[C@H](CCC(=O)O)NC(=O)[C@H](CC(=O)O)NC(=O)[C@H](CO)NC(=O)[C@H](Cc1ccccc1)NC(=O)[C@H](CO)NC(=O)CNC(=O)[C@H](CC(=O)O)NC(=O)CNC(=O)[C@@H](N)Cc1cnc[nH]1)C(=O)N[C@H](Cc1ccccc1)C(=O)N[C@H](C(=O)N[C@H](C(=O)N[C@@H](CC(C)C)C(=O)N[C@@H](CC(=O)O)C(=O)N[C@@H](CC(C)C)C(=O)N[C@@H](CC(C)C)C(=O)N[C@@H](C)C(=O)N[C@@H](C)C(=O)N[C@@H](CCCNC(=N)N)C(=O)N[C@@H](CC(=O)O)C(=O)N[C@@H](Cc1ccccc1)C(=O)N[C@H](C(=O)N[C@@H](CC(N)=O)C(=O)N[C@@H](Cc1c[nH]c2ccccc12)C(=O)N[C@@H](CC(C)C)C(=O)N[C@H](C(=O)N[C@@H](CCC(N)=O)C(=O)N[C@H](C(=O)N[C@@H](CCCCN)C(=O)N[C@H](C(=O)N[C@H](C(=O)N[C@@H](CC(=O)O)C(=O)NCCCOCCOCCOCCCNC(=O)COCC(N)=O)[C@@H](C)O)[C@@H](C)CC)[C@@H](C)O)[C@@H](C)CC)[C@@H](C)CC)[C@@H](C)CC)[C@@H](C)O (some centres not stated) | 0.03 nM | > 1000 nM | 0.28 mL/min/kg | > 33000 |
| CCCCC(NC(=O)[C@H](CCC(=O)O)NC(=O)[C@H](CC(=O)O)NC(=O)[C@H](CO)NC(=O)[C@H](Cc1ccccc1)NC(=O)[C@H](CO)NC(=O)CNC(=O)[C@H](CC(=O)O)NC(=O)CNC(=O)[C@@H](N)Cc1cnc[nH]1)C(=O)N[C@H](Cc1ccccc1)C(=O)N[C@H](C(=O)N[C@H](C(=O)N[C@@H](CC(C)C)C(=O)N[C@@H](CC(=O)O)C(=O)N[C@@H](Cc1ccccc1)C(=O)N[C@@H](CC(C)C)C(=O)N[C@@H](C)C(=O)N[C@@H](C)C(=O)N[C@@H](CCCNC(=N)N)C(=O)N[C@@H](CC(=O)O)C(=O)N[C@@H](Cc1ccccc1)C(=O)N[C@H](C(=O)N[C@@H](CC(N)=O)C(=O)N[C@@H](Cc1c[nH]c2ccccc12)C(=O)N[C@@H](CC(C)C)C(=O)N[C@H](C(=O)N[C@@H](CCC(N)=O)C(=O)N[C@H](C(=O)N[C@@H](CCCCN)C(=O)N[C@H](C(=O)N[C@H](C(=O)N[C@@H](CC(=O)O)C(=O)O)[C@@H](C)O)[C@@H](C)CC)[C@@H](C)O)[C@@H](C)CC)[C@@H](C)CC)[C@@H](C)CC)[C@@H](C)O (some centres not stated) | 0.06 nM | > 1000 nM | 0.15 mL/min/kg | > 16000 |
| CCCCC(NC(=O)[C@H](CCC(=O)O)NC(=O)[C@H](CC(=O)O)NC(=O)[C@H](CO)NC(=O)[C@H](Cc1ccccc1)NC(=O)[C@H](CO)NC(=O)CNC(=O)[C@H](CC(=O)O)NC(=O)CNC(=O)[C@@H](N)Cc1cnc[nH]1)C(=O)N[C@H](Cc1ccccc1)C(=O)N[C@H](C(=O)N[C@H](C(=O)N[C@@H](CC(C)C)C(=O)N[C@@H](CC(=O)O)C(=O)N[C@@H](CC(C)C)C(=O)N[C@@H](CC(C)C)C(=O)N[C@@H](C)C(=O)N[C@@H](C)C(=O)N[C@@H](CCCNC(=N)N)C(=O)N[C@@H](CC(=O)O)C(=O)N[C@@H](Cc1ccccc1)C(=O)N[C@H](C(=O)N[C@@H](CC(N)=O)C(=O)N[C@@H](Cc1c[nH]c2ccccc12)C(=O)N[C@@H](CC(C)C)C(=O)N[C@H](C(=O)N[C@@H](CCC(N)=O)C(=O)N[C@H](C(=O)N[C@@H](CCCCN)C(=O)N[C@H](C(=O)N[C@H](C(=O)N[C@@H](CC(=O)O)C(=O)NCc1ccccc1)[C@@H](C)O)[C@@H](C)CC)[C@@H](C)O)[C@@H](C)CC)[C@@H](C)CC)[C@@H](C)CC)[C@@H](C)O (some centres not stated) | 0.1 nM | > 1000 nM | 0.1 mL/min/kg | > 10000 |

Now from value to compound, other results behind:

| EC50 [1] | EC50 [2] | clearance [3] | Compound | Ratio EC50 (HEK293) |
| --- | --- | --- | --- | --- |
| 0.07 nM | > 1000 nM | 0.15 mL/min/kg | CCCCC(NC(=O)[C@H](CCC(=O)O)NC(=O)[C@H](CC(=O)O)NC(=O)[C@H](CO)NC(=O)[C@H](Cc1ccccc1)NC(=O)[C@H](CO)NC(=O)CNC(=O)[C@H](CC(=O)O)NC(=O)CNC(=O)[C@@H](N)Cc1cnc[nH]1)C(=O)N[C@H](Cc1cccs1)C(=O)N[C@H](C(=O)N[C@H](C(=O)N[C@@H](CC(C)C)C(=O)N[C@@H](CC(=O)O)C(=O)N[C@@H](Cc1ccccc1)C(=O)N[C@@H](CC(C)C)C(=O)N[C@@H](C)C(=O)N[C@@H](C)C(=O)N[C@@H](CCCNC(=N)N)C(=O)N[C@@H](CC(=O)O)C(=O)N[C@@H](Cc1ccccc1)C(=O)N[C@H](C(=O)N[C@@H](CC(N)=O)C(=O)N[C@@H](Cc1c[nH]c2ccccc12)C(=O)N[C@@H](CC(C)C)C(=O)N[C@H](C(=O)N[C@@H](CCC(N)=O)C(=O)N[C@H](C(=O)N[C@@H](CCCCN)C(=O)N[C@H](C(=O)N[C@H](C(=O)N[C@@H](CC(=O)O)C(N)=O)[C@@H](C)O)[C@@H](C)CC)[C@@H](C)O)[C@@H](C)CC)[C@@H](C)CC)[C@@H](C)CC)[C@@H](C)O (some centres not stated) | > 14000 |
| 0.06 nM | > 1000 nM | 0.24 mL/min/kg | CCCCC(NC(=O)[C@H](CCC(=O)O)NC(=O)[C@H](CC(=O)O)NC(=O)[C@H](CO)NC(=O)[C@H](Cc1ccccc1)NC(=O)[C@H](CO)NC(=O)CNC(=O)[C@H](CC(=O)O)NC(=O)CNC(=O)[C@@H](N)Cc1cnc[nH]1)C(=O)N[C@H](Cc1ccccc1)C(=O)N[C@H](C(=O)N[C@H](C(=O)N[C@@H](CC(C)C)C(=O)N[C@@H](CC(=O)O)C(=O)N[C@@H](Cc1ccccc1)C(=O)N[C@@H](CC(C)C)C(=O)N[C@@H](C)C(=O)N[C@@H](C)C(=O)N[C@@H](CCCNC(=N)N)C(=O)N[C@@H](CC(=O)O)C(=O)N[C@@H](Cc1ccccc1)C(=O)N[C@H](C(=O)N[C@@H](CC(N)=O)C(=O)N[C@@H](Cc1c[nH]c2ccccc12)C(=O)N[C@@H](CC(C)C)C(=O)N[C@H](C(=O)N[C@@H](CCC(N)=O)C(=O)N[C@H](C(=O)N[C@@H](CCCCN)C(=O)N[C@H](C(=O)N[C@H](C(=O)N[C@@H](CC(=O)O)C(N)=O)[C@@H](C)O)[C@@H](C)CC)[C@@H](C)O)[C@@H](C)CC)[C@@H](C)CC)[C@@H](C)CC)[C@@H](C)O (some centres not stated) | > 16000 |
| 0.51 nM | > 1000 nM | 0.11 mL/min/kg | CCCCC(NC(=O)[C@@H](CCC(=O)O)NC(=O)[C@@H](CC(=O)O)NC(=O)[C@@H](CO)NC(=O)[C@@H](Cc1ccccc1)NC(=O)[C@@H](CO)NC(=O)CNC(=O)[C@@H](CC(=O)O)NC(=O)CNC(=O)[C@@H](N)Cc1cnc[nH]1)C(=O)N[C@@H](Cc1cccc(Cl)c1)C(=O)N[C@@H](C(=O)N[C@@H](C(=O)N[C@H](CC(C)C)C(=O)N[C@H](CC(=O)O)C(=O)NC(Cc1ccc2ccccc2c1)C(=O)N[C@@H](CC(C)C)C(=O)N[C@@H](C)C(=O)N[C@@H](C)C(=O)N[C@@H](CCCNC(=N)N)C(=O)N[C@@H](CC(=O)O)C(=O)N[C@@H](Cc1ccccc1)C(=O)N[C@H](C(=O)N[C@@H](CC(N)=O)C(=O)N[C@H](Cc1c[nH]c2ccccc12)C(=O)N[C@H](CC(C)C)C(=O)N[C@@H](C(=O)N[C@H](CCC(N)=O)C(=O)N[C@@H](C(=O)N[C@H](CCCCN)C(=O)N[C@@H](C(=O)N[C@@H](C(=O)N[C@@H](CC(=O)O)C(N)=O)[C@H](C)O)[C@@H](C)CC)[C@H](C)O)[C@@H](C)CC)[C@H](C)CC)[C@@H](C)CC)[C@H](C)O (some centres not stated) | > 1900 |
